# Data taken from patent US20240360075A1, “N-SUBSTITUTED C6 CYCLYL CARBOXAMIDE COMPOUNDS AND USES THEREOF” (ALCON INC., priority 2023, published 2024).
# Biological target: T1, TRPM8 (Homo sapiens, UniProt Q7Z2W7)
# T1 construct: purchased Eurofins (Cerep) item #3316
# Test: TRPM8 Human Transient Potential Ion Channel Cell Based Agonist Calcium Flux Assay (Eurofins Cerep item #3316)
# Details: for Emax / Percent Agonist: control activator ligand icilin; for Emax: read-out: Percent Agonist; for EC50: room temperature
# Text: Compounds can be tested using the commercially available kit from Eurofins “TRPM8 Human Transient Potential Ion Channel Cell Based Agonist Calcium Flux Assay, Cerep” item #3316, or using the assay, referenced by Eurofins, and described in Behrendt et al. “Characterization of the mouse cold-menthol receptor TRPM8 and vanilloid receptor type-1 VR1 using a fluorometric imaging plate reader (FLIPR) assay,” Br J Pharmacol. 2004 Feb;141(4):737-45, which are each incorporated herein by reference. […] 4.
# The assay is done at room temperature and measures calcium flux.
# T1 sequence (Q7Z2W7 whole entry): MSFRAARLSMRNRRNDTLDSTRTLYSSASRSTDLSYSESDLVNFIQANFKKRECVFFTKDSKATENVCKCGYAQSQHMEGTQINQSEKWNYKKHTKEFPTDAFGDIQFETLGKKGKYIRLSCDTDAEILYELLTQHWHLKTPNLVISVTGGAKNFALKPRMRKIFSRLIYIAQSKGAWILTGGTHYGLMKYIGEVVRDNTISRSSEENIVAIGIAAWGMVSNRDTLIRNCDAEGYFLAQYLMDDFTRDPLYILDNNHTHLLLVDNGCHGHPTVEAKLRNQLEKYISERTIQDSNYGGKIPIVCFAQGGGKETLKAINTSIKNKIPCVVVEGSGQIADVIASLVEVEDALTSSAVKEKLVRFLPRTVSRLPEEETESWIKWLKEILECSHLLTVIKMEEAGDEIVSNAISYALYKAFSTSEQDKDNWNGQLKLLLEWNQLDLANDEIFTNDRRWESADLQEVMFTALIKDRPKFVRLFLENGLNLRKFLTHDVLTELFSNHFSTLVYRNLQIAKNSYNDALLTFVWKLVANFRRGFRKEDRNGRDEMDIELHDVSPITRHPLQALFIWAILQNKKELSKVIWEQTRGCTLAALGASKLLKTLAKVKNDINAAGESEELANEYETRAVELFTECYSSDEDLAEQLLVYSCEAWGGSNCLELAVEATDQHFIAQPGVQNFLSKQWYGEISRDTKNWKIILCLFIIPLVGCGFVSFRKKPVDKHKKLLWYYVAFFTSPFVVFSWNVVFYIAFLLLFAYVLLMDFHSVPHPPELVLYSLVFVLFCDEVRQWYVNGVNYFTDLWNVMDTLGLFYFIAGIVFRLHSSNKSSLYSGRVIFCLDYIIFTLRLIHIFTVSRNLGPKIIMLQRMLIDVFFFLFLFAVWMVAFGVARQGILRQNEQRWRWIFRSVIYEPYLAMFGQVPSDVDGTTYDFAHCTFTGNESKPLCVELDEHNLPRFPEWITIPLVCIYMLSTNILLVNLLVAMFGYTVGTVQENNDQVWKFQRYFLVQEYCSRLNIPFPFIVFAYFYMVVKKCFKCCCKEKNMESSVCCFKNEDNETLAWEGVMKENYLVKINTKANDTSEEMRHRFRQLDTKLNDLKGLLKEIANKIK
SMILES,Emax [%],EC50 [nM],Percent Agonist [%]
COC12CCC(NC(=O)c3cc(Cl)ccc3C(C)C)(CC1)CC2 [Compound 172],> 100,< 3000,
CC(C)[C@@H]1CC[C@@H](C)C[C@H]1C(=O)NC1CC2(COC2)C1 [Compound 32],> 75,< 2000,
CC(C)[C@@H]1CC[C@@H](C)C[C@H]1C(=O)NC1CN(CC(=O)OC(C)(C)C)C1 [Compound 30],,> 10000,
COc1ccc(CNC(=O)[C@@H]2C[C@H](C)CC[C@H]2C(C)C)cc1 [Compound 10],> 75,< 5000,
COc1ccc(NC(=O)[C@H]2CCC[C@@H](O)C2)cc1 [Compound 177],,> 10000,
CC(C)[C@@H]1CC[C@@H](C)C[C@H]1C(=O)NCC1COC1 [Compound 56],> 75,< 10000,
C#CCNC(=O)[C@@H]1C[C@H](C)CC[C@H]1C(C)C [Compound 101],> 75,< 5000,
COc1ccc(NC(=O)[C@@H]2C[C@H](C)CC[C@H]2C(C)=O)cc1 [Compound 108],> 5,> 10000,
COc1ccc(NC(=O)c2cccc(C(F)(F)F)c2)cc1 [Compound 174],,> 10000,
CC(C)[C@@H]1CC[C@@H](C)C[C@H]1C(=O)Nc1cc(C(=O)O)ns1 [Compound 64],,> 10000,
COC(=O)C12CC(NC(=O)c3cc(C)ccc3C(C)C)(C1)C2 [Compound 170],> 75,< 5000,
COCCOCCOc1cccc(NC(=O)[C@@H]2C[C@H](C)CC[C@H]2C(C)C)c1 [Compound 9],> 75,< 5000,
CC(C)[C@@H]1CC[C@@H](C)C[C@H]1C(=O)NC1CCS(=O)(=O)CC1 [Compound 36],> 75,< 10000,
CC(C)[C@@H]1CC[C@@H](C)C[C@H]1C(=O)NC12CC(CCO)(C1)C2 [Compound 45],> 100,< 1000,
COCCO[C@H]1CC[C@H](NC(=O)[C@@H]2C[C@H](C)CC[C@H]2C(C)C)CC1 [Compound 52],> 100,< 1000,
CC(C)[C@@H]1CC[C@@H](C)C[C@H]1C(=O)NC1CC2(CCCO2)C1 (stereo partly drawn) [Compound 44],> 75,< 1000,
COC12CCC(NC(=O)[C@H]3CCC[C@@H](N)C3)(CC1)CC2 [Compound 171],,> 10000,
COC(=O)c1cc(NC(=O)[C@@H]2C[C@H](C)CC[C@H]2C(C)C)ccn1 [Compound 72],> 75,< 5000,
CC(C)[C@@H]1CC[C@@H](C)C[C@H]1C(=O)Nc1ccncn1 [Compound 83],> 75,< 5000,
CC(C)[C@@H]1CC[C@@H](C)C[C@H]1C(=O)NCC1CC1(F)F (stereo partly drawn) [Compound 89],> 75,< 1000,
CC(C)[C@@H]1CC[C@@H](C)C[C@H]1C(=O)Nc1ccc(B2OC(C)(C)C(C)(C)O2)cn1 [Compound 79],> 75,< 2000,
COc1ccc(NC(=O)[C@@H]2C[C@H](C)CC[C@H]2C(C)C)nc1Cl [Compound 75],> 75,< 5000,
COC12CCC(NC(=O)[C@H]3CCC[C@@H](NC(C)=O)C3)(CC1)CC2 [Compound 173],,> 10000,
COC(=O)NC12CC(NC(=O)[C@@H]3C[C@H](C)CC[C@H]3C(C)C)(C1)C2 [Compound 37],> 100,< 1000,
CC(C)[C@@H]1CC[C@@H](C)C[C@H]1C(=O)NC1CCN(C)CC1 [Compound 54],> 75,> 10000,

# Next, values leading:
Emax [%],EC50 [nM],Percent Agonist [%],SMILES
> 75,< 500,,CC(C)[C@@H]1CC[C@@H](C)C[C@H]1C(=O)Nc1ccc(OCCN(C)C)cc1 [Compound 11]
> 50,< 100,,CC(C)[C@@H]1CC[C@@H](C)C[C@H]1C(=O)Nc1ccc2c(c1)B(O)OC2 [Compound 4]
,< 500,>75,CC(C)[C@@H]1CC[C@@H](C)C[C@H]1C(=O)NC1CC2C(C1)C2(F)F (stereo partly drawn) [102 or 92]
> 75,< 100,,COC(=O)C12CC(NC(=O)[C@@H]3C[C@H](C)CC[C@H]3C(C)C)(C1)C2 [Compound 31]
> 75,< 500,,COC(=O)c1cc(NC(=O)[C@@H]2C[C@H](C)CC[C@H]2C(C)C)sn1 [Compound 62]
> 75,< 1000,,COC(=O)C12CCC(NC(=O)[C@@H]3C[C@H](C)CC[C@H]3C(C)C)(CC1)CC2 [Compound 57]
> 75,< 100,,CC(C)[C@@H]1CC[C@@H](C)C[C@H]1C(=O)Nc1ccc(S(C)(=O)=O)nc1 [Compound 84]
> 75,< 500,,COC(=O)c1ccc(NC(=O)[C@@H]2C[C@H](C)CC[C@H]2C(C)C)cn1 [Compound 78]
> 75,< 100,,CC(C)[C@@H]1CC[C@@H](C)C[C@H]1C(=O)Nc1ccccc1CCN [Compound 67]
> 75,< 100,,CC(C)[C@@H]1CC[C@@H](C)C[C@H]1C(=O)Nc1ccc(CCO)cc1 [Compound 17]
> 75,< 100,,CC(C)[C@@H]1CC[C@@H](C)C[C@H]1C(=O)NC12CC(C(=O)OC(C)(C)C)(C1)C2 [Compound 51]
> 50,< 1000,,CC(C)[C@@H]1CC[C@@H](C)C[C@H]1C(=O)Nc1ccccc1CN(C)C [Compound 65]
> 75,< 1000,,CC(C)[C@@H]1CC[C@@H](C)C[C@H]1C(=O)N[C@H]1CC[C@H](N)C1 [Compound 34]
> 100,< 500,,CO[C@H]1CC[C@H](NC(=O)[C@@H]2C[C@H](C)CC[C@H]2C(C)C)CC1 [Compound 50]
> 75,< 100,,COCC12CC(NC(=O)[C@@H]3C[C@H](C)CC[C@H]3C(C)C)(C1)C2 [Compound 35]
,< 100,>50,CC(C)[C@@H]1CC[C@@H](C)C[C@H]1C(=O)NC1CC2C(C1)C2(F)F (stereo partly drawn) [92 or 102]
> 75,< 1000,,COC(=O)CC12CC(NC(=O)[C@@H]3C[C@H](C)CC[C@H]3C(C)C)(C1)C2 [Compound 43]
> 75,< 1000,,CC(C)[C@@H]1CC[C@@H](C)C[C@H]1C(=O)NCCC1CC1(F)F (stereo partly drawn) [Compound 91]
> 75,< 100,,CC(C)[C@@H]1CC[C@@H](C)C[C@H]1C(=O)Nc1ccc(C2CC2)cc1 [Compound 6]
> 75,< 500,,CON(C)C(=O)C12CC(NC(=O)[C@@H]3C[C@H](C)CC[C@H]3C(C)C)(C1)C2 [Compound 49]
> 75,< 500,,COc1ncc(NC(=O)[C@@H]2C[C@H](C)CC[C@H]2C(C)C)cc1F [Compound 82]
> 75,< 500,,CC(C)[C@@H]1CC[C@@H](C)C[C@H]1C(=O)NC1COC1 [Compound 38]
> 100,< 100,,COc1ccc(NC(=O)[C@@H]2C[C@H](C)CC[C@H]2C(C)C)c(F)n1 [Compound 81]
> 100,< 500,,CC(C)[C@@H]1CC[C@@H](C)C[C@H]1C(=O)Nc1ccc(C2(CCO)COC2)cc1 [Compound 20]
> 100,< 500,,CC(C)[C@@H]1CC[C@@H](C)C[C@H]1C(=O)Nc1ccc(B2OC(C)(C)C(C)(C)O2)cc1 [Compound 22]
> 100,< 500,,C=C(C)[C@@H]1CC[C@@H](C)C[C@H]1C(=O)Nc1ccc(OC)cc1 [Compound 107]
